Laboratory results: US9902938B2, “Method for inducing exocrine pancreatic cells” (Kyoto University, priority 2012, dated 2018)

What was measured:
[1] = test system: PDX1-positive pancreatic precursor cells; assay: Induction of exocrine pancreatic cells from human ES cell-derived pancreatic precursor cells (Example 1, anti-amylase immunostaining); assay type: cell-based; settings: human ES cells (KhES3)
Procedure: Human ES cells (KhES3) received from Kyoto University (Kyoto, Japan) were cultured by a conventional method (Mori H, et al., Biochem Biophys Res Commun. 2006, 345, 926-932). ES cells were cultured on 6-cm dishes to 80%-90% confluency, and then 1 mL of Accutase™ was added to disperse ES cells into single cells.
ES cells dispersed into single cells were induced to differentiate into exocrine pancreatic cells according to protocols shown in FIG. 1. Specifically, the following 5 steps were carried out.
(§1) (Stage 1) ES cells were suspended in a RPMI1640 medium containing 2% B27 and Penicillin/Streptomycin, and then seeded in a matrigel-coated 24-well plate at 250,000/well. 100 ng/ml, Activin A and 1 μM CHIR99021 were added to adjust the amount of the medium to be 0.5 mL/well, and then cells were cultured for 6 days.
(Stage 2-1) The medium was substituted with DMEM containing 50 ng/ml FGF10, 0.25 μM KAAD (3-Keto-N-(aminoethyl-aminocaproyl-dihydro-cinnamoyl))-cyclopamine, 1% L-Glutamin, 2% B27, 50 mU/L Penicillin and 50 μg/L Streptomycin, and then cells were cultured for 1 day.
(Stage 2-2) The medium was substituted with DMEM containing 2 μM retinoic acid, 50 ng/ml FGF10, 0.25 μM KAAD-cyclopamine, 1% L-Glutamin, 2% B27, 50 mU/L Penicillin and 50 μg/L Streptomycin, and then cells were cultured for 2 days.
(Stage 2-3) The medium was substituted with DMEM containing 50 ng/ml FGF10, 300 nM (−)-indolactam V (ILV), 1% L-Glutamin, 2% B27, 50 mU/L Penicillin and 50 μg/L Streptomycin, and then cells were cultured for 4 days.
(Stage 3) The medium was substituted with DMEM containing 1 μM CHAP108 (formula 10), 300 nM ILV, 1% L-Glutamin, 2% B27, 50 mU/L Penicillin and 50 μg/L. Streptomycin, and then cells were cultured for 4 days or 8 days.
The result obtained by culturing cells for 12 days in Stage 3 with the use of the ligand protein for a Notch signal, 0.5 mg/ml hDLL4 or 0.5 mg/ml hJAG1, instead of CHAP108 was compared with the result obtained by culturing cells for 4 days in Stage 3 with the use of CHAP108. […]

[2] = test system: PDX1-positive pancreatic precursor cells; assay: Induction of exocrine pancreatic cells by modified protocol (Example 2, immunostaining with anti-Amylase); assay type: cell-based; settings: Stage 3 culture 2 days, 1 μM CHAP108 with 300 nM ILV; human ES cells (KhES3); DMSO negative control 2.8%
Procedure: ES cells (KhES3) dispersed into single cells were induced to differentiate into exocrine pancreatic cells according to modified protocols shown in FIG. 1. Specifically, the following 5 steps were carried out.
as §1, with “100 ng/mL” for “100 ng/ml,”, “for 4” for “for 6”
(Stage 2-1) The medium was substituted with DMEM containing 50 ng/ml […], 0.25 μM KAAD (3-Keto-N-(aminoethyl-aminocaproyl-dihydro-cinnamoyl))-cyclopamine, 1% L-Glutamin, 2% B27, 50 mU/L Penicillin and 50 μg/L Streptomycin, and then cells were cultured for 1 day.
(Stage 2-2) The medium was substituted with DMEM containing 2 μM retinoic acid, 50 ng/ml FGF10, 0.25 μM KAAD-cyclopamine, 1% L-Glutamin, 2% B27, 50 mU/L Penicillin and […] Streptomycin, and then cells were cultured for 2 days.
(Stage 2-3) The medium was substituted with DMEM containing 50 ng/ml FGF10, 300 nM (−)-indolactam V (ILV), 1% L-Glutamin, 2% B27, 50 mU/L Penicillin and 50 μg/L Streptomycin, and then cells were cultured for 2 days. […]

[3] = Stage 3 culture 12 days, 0.5 mg/ml ligand protein instead of CHAP108

Molecule	efficiency for inducing exocrine pancreatic cells [1, 3] [%]	efficiency for inducing exocrine pancreatic cells ([1]; Stage 3 culture 4 days, 1 μM CHAP108 with 300 nM ILV) [%]	Amylase positive rate [2] [%]
hJAG1: ligand protein for a Notch signal receptor, member of the Jagged family	27.0		
CCC(C)C1NC(=O)C(Cc2ccc(OC)cc2)NC(=O)C(CCCCCN(O)C=O)NC(=O)C2CCCCN2C1=O (stereo not shown) [CHAP108]		21.4	56.3
hDLL4: ligand protein for a Notch signal receptor, member of the Delta-like family	28.8		
